Measured values: paper PMC10794144, “A novel antibiotic class targeting the lipopolysaccharide transporter” (Nature, 2024)
≈ marks a conversion by molar mass, not a printed value. Like-named read-outs stand apart in the source and are kept apart here.

Experiments:
A. baumannii = assay: microbe, parasite or virus in culture; conditions: Acinetobacter baumannii, 100%
Outline: (§1)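 Values come from CLSI-guided (M07, M100) broth microdilution in CAMHB. Endpoint: lowest concentration halting growth, judged by naked eye or by OD600 plateau.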

P. aeruginosa ATCC 27853 = assay: microbe, parasite or virus in culture; conditions: Pseudomonas aeruginosa
Outline: as §1

## C[C@@H](O)[C@H]1C(=O)N2C(C(=O)O)=C(S[C@@H]3CN[C@H](C(=O)N(C)C)C3)[C@H](C)[C@H]12 [meropenem, reference compound]
A. baumannii; read-out: MIC 100%, ROB08708, Study ROC006
  MIC: 64 µg/mL (≈ 167 µM)
A. baumannii; read-out: MIC 100%, ROB08708, Study ROC007
  MIC: 16 µg/mL (≈ 41.7 µM)
A. baumannii; read-out: MIC 100%, ROB08708, Study ROC008
  MIC: 16 µg/mL (≈ 41.7 µM)
A. baumannii; read-out: MIC 100%, ROB08708, Study ROC009
  MIC: 32 µg/mL (≈ 83.4 µM)
A. baumannii; read-out: MIC 100%, ROB08708, Study ROC010
  MIC: 16 µg/mL (≈ 41.7 µM)
A. baumannii; read-out: MIC 100%, ROB08708, Study ROC012
  MIC: 16 µg/mL (≈ 41.7 µM)
A. baumannii; read-out: MIC 100%, ROB08708, Study ROC013
  MIC: 32 µg/mL (≈ 83.4 µM)
A. baumannii; read-out: MIC 100%, ROB08709, Study LGC277937
  MIC: 32 µg/mL (≈ 83.4 µM)
A. baumannii; read-out: MIC 100%, ROB08709, Study LGC279800
  MIC: 32 µg/mL (≈ 83.4 µM)
A. baumannii; read-out: MIC 100%, ROB08709, Study LGC281440
  MIC: 32 µg/mL (≈ 83.4 µM)
A. baumannii; read-out: MIC 100%, ROB08709, Study LGC282160
  MIC: 16 µg/mL (≈ 41.7 µM)
A. baumannii; read-out: MIC 100%, ROB08709, Study LGC282623
  MIC: 32 µg/mL (≈ 83.4 µM)
A. baumannii; read-out: MIC 100%, ROB08709, Study LGC283932
  MIC: 32 µg/mL (≈ 83.4 µM)
A. baumannii; read-out: MIC 100%, ROB08709, Study LGC284200
  MIC: 32 µg/mL (≈ 83.4 µM)
A. baumannii; read-out: MIC 100%, ROB08709, Study LGC284879
  MIC: 32 µg/mL (≈ 83.4 µM)
A. baumannii; read-out: MIC 100%, ROB08709, Study LGC285582
  MIC: 32 µg/mL (≈ 83.4 µM)
A. baumannii; read-out: MIC 100%, ROB08709, Study LGC286210
  MIC: 32 µg/mL (≈ 83.4 µM)
A. baumannii; read-out: MIC 100%, ROB08709, Study LGC293598
  MIC: 32 µg/mL (≈ 83.4 µM)
A. baumannii; read-out: MIC 100%, ROB08709, Study LGC294355
  MIC: 32 µg/mL (≈ 83.4 µM)
A. baumannii; read-out: MIC 100%, ROB08709, Study LGC295147
  MIC: 16 µg/mL (≈ 41.7 µM)
A. baumannii; read-out: MIC 100%, ROB08709, Study LGC296813
  MIC: 16 µg/mL (≈ 41.7 µM)
A. baumannii; read-out: MIC 100%, ROB08709, Study LGC299544
  MIC: 32 µg/mL (≈ 83.4 µM)
A. baumannii; read-out: MIC 100%, ROB08709, Study LGC301026
  MIC: 16 µg/mL (≈ 41.7 µM)
A. baumannii; read-out: MIC 100%, ROB08709, Study LGC308175
  MIC: 32 µg/mL (≈ 83.4 µM)
A. baumannii; read-out: MIC 100%, ROB08709, Study ROC004
  MIC: 64 µg/mL (≈ 167 µM)
A. baumannii; read-out: MIC 100%, ROB08709, Study ROC005
  MIC: 16 µg/mL (≈ 41.7 µM)
A. baumannii; read-out: MIC 100%, ROB08709, Study ROC006
  MIC: 64 µg/mL (≈ 167 µM)
A. baumannii; read-out: MIC 100%, ROB08709, Study ROC007
  MIC: 16 µg/mL (≈ 41.7 µM)
A. baumannii; read-out: MIC 100%, ROB08709, Study ROC008
  MIC: 16 µg/mL (≈ 41.7 µM)
A. baumannii; read-out: MIC 100%, ROB08709, Study ROC009
  MIC: 16 µg/mL (≈ 41.7 µM)
A. baumannii; read-out: MIC 100%, ROB08709, Study ROC010
  MIC: 16 µg/mL (≈ 41.7 µM)
A. baumannii; read-out: MIC 100%, ROB08709, Study ROC012
  MIC: 16 µg/mL (≈ 41.7 µM)
A. baumannii; read-out: MIC 100%, ROB08709, Study ROC013
  MIC: 32 µg/mL (≈ 83.4 µM)
A. baumannii; read-out: MIC 100%, ROB08710, Study LGC277937
  MIC: 64 µg/mL (≈ 167 µM)
A. baumannii; read-out: MIC 100%, ROB08710, Study LGC279800
  MIC: 64 µg/mL (≈ 167 µM)
A. baumannii; read-out: MIC 100%, ROB08710, Study LGC281440
  MIC: 32 µg/mL (≈ 83.4 µM)
A. baumannii; read-out: MIC 100%, ROB08710, Study LGC282160
  MIC: 64 µg/mL (≈ 167 µM)
A. baumannii; read-out: MIC 100%, ROB08710, Study LGC282623
  MIC: 32 µg/mL (≈ 83.4 µM)
A. baumannii; read-out: MIC 100%, ROB08710, Study LGC283932
  MIC: 32 µg/mL (≈ 83.4 µM)
A. baumannii; read-out: MIC 100%, ROB08710, Study LGC284200
  MIC: 32 µg/mL (≈ 83.4 µM)
A. baumannii; read-out: MIC 100%, ROB08710, Study LGC284879
  MIC: 32 µg/mL (≈ 83.4 µM)
A. baumannii; read-out: MIC 100%, ROB08710, Study LGC285582
  MIC: 32 µg/mL (≈ 83.4 µM)
A. baumannii; read-out: MIC 100%, ROB08710, Study LGC286210
  MIC: 32 µg/mL (≈ 83.4 µM)
A. baumannii; read-out: MIC 100%, ROB08710, Study LGC293598
  MIC: 32 µg/mL (≈ 83.4 µM)
A. baumannii; read-out: MIC 100%, ROB08710, Study LGC294355
  MIC: 32 µg/mL (≈ 83.4 µM)
A. baumannii; read-out: MIC 100%, ROB08710, Study LGC295147
  MIC: 64 µg/mL (≈ 167 µM)
A. baumannii; read-out: MIC 100%, ROB08710, Study LGC296813
  MIC: 32 µg/mL (≈ 83.4 µM)
A. baumannii; read-out: MIC 100%, ROB08710, Study LGC299544
  MIC: 64 µg/mL (≈ 167 µM)
A. baumannii; read-out: MIC 100%, ROB08710, Study LGC301026
  MIC: 32 µg/mL (≈ 83.4 µM)
A. baumannii; read-out: MIC 100%, ROB08710, Study LGC308175
  MIC: 32 µg/mL (≈ 83.4 µM)
A. baumannii; read-out: MIC 100%, ROB08710, Study ROC004
  MIC: 32 µg/mL (≈ 83.4 µM)
A. baumannii; read-out: MIC 100%, ROB08710, Study ROC005
  MIC: 32 µg/mL (≈ 83.4 µM)
A. baumannii; read-out: MIC 100%, ROB08710, Study ROC006
  MIC: 64 µg/mL (≈ 167 µM)
A. baumannii; read-out: MIC 100%, ROB08710, Study ROC007
  MIC: 64 µg/mL (≈ 167 µM)
A. baumannii; read-out: MIC 100%, ROB08710, Study ROC008
  MIC: 32 µg/mL (≈ 83.4 µM)
A. baumannii; read-out: MIC 100%, ROB08710, Study ROC009
  MIC: 64 µg/mL (≈ 167 µM)
A. baumannii; read-out: MIC 100%, ROB08710, Study ROC010
  MIC: 32 µg/mL (≈ 83.4 µM)
A. baumannii; read-out: MIC 100%, ROB08710, Study ROC012
  MIC: 32 µg/mL (≈ 83.4 µM)
A. baumannii; read-out: MIC 100%, ROB08710, Study ROC013
  MIC: 32 µg/mL (≈ 83.4 µM)
P. aeruginosa ATCC 27853; ATCC27853, CAMHB, mode of at least three replicates (RO7036668 one replicate)
  MIC: 0.5 µg/mL (≈ 1.3 µM)
P. aeruginosa ATCC 27853; ATCC27853, read-out: MIC 100%, Study LGC277937, 100%
  MIC: 0.5 µg/mL (≈ 1.3 µM)
P. aeruginosa ATCC 27853; ATCC27853, read-out: MIC 100%, Study LGC279800, 100%
  MIC: 0.25 µg/mL (≈ 0.652 µM)
P. aeruginosa ATCC 27853; ATCC27853, read-out: MIC 100%, Study LGC281440, 100%
  MIC: 0.25 µg/mL (≈ 0.652 µM)
P. aeruginosa ATCC 27853; ATCC27853, read-out: MIC 100%, Study LGC282160, 100%
  MIC: 0.5 µg/mL (≈ 1.3 µM)
P. aeruginosa ATCC 27853; ATCC27853, read-out: MIC 100%, Study LGC282623, 100%
  MIC: 0.5 µg/mL (≈ 1.3 µM)
P. aeruginosa ATCC 27853; ATCC27853, read-out: MIC 100%, Study LGC283932, 100%
  MIC: 0.5 µg/mL (≈ 1.3 µM)
P. aeruginosa ATCC 27853; ATCC27853, read-out: MIC 100%, Study LGC284200, 100%
  MIC: 0.5 µg/mL (≈ 1.3 µM)
P. aeruginosa ATCC 27853; ATCC27853, read-out: MIC 100%, Study LGC284879, 100%
  MIC: 0.5 µg/mL (≈ 1.3 µM)
P. aeruginosa ATCC 27853; ATCC27853, read-out: MIC 100%, Study LGC285582, 100%
  MIC: 0.25 µg/mL (≈ 0.652 µM)
P. aeruginosa ATCC 27853; ATCC27853, read-out: MIC 100%, Study LGC286210, 100%
  MIC: 0.5 µg/mL (≈ 1.3 µM)
P. aeruginosa ATCC 27853; ATCC27853, read-out: MIC 100%, Study LGC293598, 100%
  MIC: 0.5 µg/mL (≈ 1.3 µM)
P. aeruginosa ATCC 27853; ATCC27853, read-out: MIC 100%, Study LGC294355, 100%
  MIC: 0.5 µg/mL (≈ 1.3 µM)
P. aeruginosa ATCC 27853; ATCC27853, read-out: MIC 100%, Study LGC295147, 100%
  MIC: 0.5 µg/mL (≈ 1.3 µM)
P. aeruginosa ATCC 27853; ATCC27853, read-out: MIC 100%, Study LGC296813, 100%
  MIC: 0.5 µg/mL (≈ 1.3 µM)
P. aeruginosa ATCC 27853; ATCC27853, read-out: MIC 100%, Study LGC299544, 100%
  MIC: 0.5 µg/mL (≈ 1.3 µM)
P. aeruginosa ATCC 27853; ATCC27853, read-out: MIC 100%, Study LGC301026, 100%
  MIC: 0.25 µg/mL (≈ 0.652 µM)
P. aeruginosa ATCC 27853; ATCC27853, read-out: MIC 100%, Study LGC308175, 100%
  MIC: 0.25 µg/mL (≈ 0.652 µM)
P. aeruginosa ATCC 27853; ATCC27853, read-out: MIC 100%, Study ROC003, 100%
  MIC: 0.5 µg/mL (≈ 1.3 µM)
P. aeruginosa ATCC 27853; ATCC27853, read-out: MIC 100%, Study ROC004, 100%
  MIC: 0.5 µg/mL (≈ 1.3 µM)
P. aeruginosa ATCC 27853; ATCC27853, read-out: MIC 100%, Study ROC005, 100%
  MIC: 0.5 µg/mL (≈ 1.3 µM)
P. aeruginosa ATCC 27853; ATCC27853, read-out: MIC 100%, Study ROC006, 100%
  MIC: 0.5 µg/mL (≈ 1.3 µM)
P. aeruginosa ATCC 27853; ATCC27853, read-out: MIC 100%, Study ROC007, 100%
  MIC: 0.5 µg/mL (≈ 1.3 µM)
P. aeruginosa ATCC 27853; ATCC27853, read-out: MIC 100%, Study ROC008, 100%
  MIC: 2 µg/mL (≈ 5.22 µM)
P. aeruginosa ATCC 27853; ATCC27853, read-out: MIC 100%, Study ROC009, 100%
  MIC: 0.25 µg/mL (≈ 0.652 µM)
P. aeruginosa ATCC 27853; ATCC27853, read-out: MIC 100%, Study ROC010, 100%
  MIC: 0.5 µg/mL (≈ 1.3 µM)
P. aeruginosa ATCC 27853; ATCC27853, read-out: MIC 100%, Study ROC012, 100%
  MIC: 0.12 µg/mL (≈ 0.313 µM)
P. aeruginosa ATCC 27853; ATCC27853, read-out: MIC 100%, Study ROC013, 100%
  MIC: 0.5 µg/mL (≈ 1.3 µM)
